According to article PMC12207366, “Protonated Glutamate and Aspartate Side Chains Can Recognize Phosphodiester Groups via Strong and Short Hydrogen Bonds in Biomacromolecular Complexes” (Angewandte Chemie (International Ed. in English), 2025):
Read-outs that look alike come from different tables or passages of the source.

Assays:
[1] = target: T1, PilF159-302 WT (Thermus thermophilus, UniProt Q72H73); test: ITC c-di-GMP binding to wild-type GSPII-B domain; settings: for -TΔS / Kd / ΔG / ΔH: 20 °C
T1 sequence (Q72H73 159-302): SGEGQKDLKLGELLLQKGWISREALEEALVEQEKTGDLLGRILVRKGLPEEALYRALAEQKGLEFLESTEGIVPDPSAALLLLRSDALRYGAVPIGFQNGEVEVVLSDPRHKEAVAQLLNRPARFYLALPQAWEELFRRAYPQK
Description: (§1) To characterize c-di-GMP binding by PilF159-302, the Q190E and Q218E constructs via isothermal titration calorimetry (ITC) and X-ray crystallography unlabeled c-di-GMP was synthesized using a constitutively active mutant of a diguanylate cyclase from the thermophilic bacterium Thermogata maritima ^[4^4,4^5]. For NMR experiments ^13C,^15N labelled c-di-GMP was synthesized identically using ^13C,^15N labelled GTP as a substrate.
(§2) c-di-GMP binding capabilities of PilF159-302, its mutant constructs PilF159-302 Q190E and PilF159-302 Q218E at varying pH-values were investigated by isothermal titration calorimetry (ITC) experiments in triplicate. All measurements were conducted at 20 °C using a MicroCal ITC200 (Malvern Panalytical, UK). For PilF159-302 Q190E and PilF159-302 Q218E ITC-measurements were conducted in a pH range from pH 8.5 – 4.0 with the buffering agent adjusted to the respective pH-range. For the pH-range 8.5 – 7.5 a sample buffer of 50 mM Tris, 200 mM NaCl and 1 mM β-Me was used. For pH values 7.0 – 6.0 a sample buffer of 50 mM BisTris, 200 mM NaCl, 1 mM β-Me and for pH 5.5 – 4.0 a sample buffer of 50 mM NaAc, 200 mM NaCl, 1 mM β-Me was used. For reference PilF159-302 was titrated with c-di-GMP at pH 8.5 in 50 mM Tris pH 8.5, 200 mM NaCl, 1 mM β-Me and at pH 4.0 in 50 mM NaAc pH 4.0, 200 mM NaCl, 1 mM β-Me. In order to test whether the buffer reagents have an influence on the measured thermodynamic parameters, cross measurements were performed in the region of the pH transitions. To this end, additional measurements with BisTris at pH 7.5 and 5.5, with Tris at pH 7.0 and with NaAc at pH 6.0 were carried out as singlets. The buffer agents had no influence on measured KD-values and resulted only in small changes of the ΔH values. All protein samples were dialyzed two times against 500 ml of the respective sample buffer (1 L in total) at 4 °C for at least 16 hours per step using a dialysis chamber with a nominal 3.5 kDa molecular weight cutoff (ZelluTrans, ROTH). To prepare the ITC-measurements protein and c-di-GMP sample were adjusted to the respective concentration using the dialysis buffer. Protein and c-di-GMP concentration ranged from 20 to 50 µM (protein) and 200 to 500 µM (c-di-GMP) depending on the c-di-GMP binding capabilities at the different pH-values to optimize precision of the measurements. For pH 8.5 – 7.0 a protein concentration of 50 µM with 500 µM c-di-GMP was used. For pH 6.5 – 5.0 a protein concentration of 30 µM with 300 µM c-di-GMP and for pH 4.5 – 4.0 a protein concentration of 20 µM with 200 µM c-di-GMP was used. The following protocol was utilized for each measurement. To 270 µl protein a total of 40 µl c-di-GMP was titrated in 21 injections with a duration of 4 s in intervals of 180 s with a stirring speed of 750 rpm. The first injection of 0.2 µl c-di-GMP with a duration of 0.4 s was carried out after an initial delay of 120 s, which was followed by 20 injections of 2 µl each with a duration of 4 s. During the measurement, the feedback mode was set to high and the reference power to 11 µcal s^-1. All thermograms were processed using Origin 7.0 (OriginLab) using the one-site binding model.

[2] = target: T2, PilF159-302 Q218E (Thermus thermophilus, UniProt Q72H73, Q218E); test: ITC c-di-GMP binding to Q218E mutant, pH series; settings: 20 °C
T2 sequence (Q72H73 159-302 Q218E): T1 sequence (Q72H73 159-302)
Description: as §1, §2

[3] = target: T1, PilF159-302 WT; design: method as in PMID 39615687; settings: GSPII-B (PilF159-302) four-helix bundle; cited from earlier work
[4] = target: T3, PilF159-302 Q190E (Thermus thermophilus, UniProt Q72H73, Q190E); design: method as in PMID 39615687; settings: in vitro, pH 7.5; cited from earlier work
T3 sequence (Q72H73 159-302 Q190E): T1 sequence (Q72H73 159-302)

[5] = target: T2, PilF159-302 Q218E; design: method as in PMID 39615687; settings: in vitro, pH 7.5; cited from earlier work

Nc1nc2c(ncn2C2OC3COP(=O)(O)OC4C(COP(=O)(O)OC3C2O)OC(n2cnc3c(=O)[nH]c(N)nc32)C4O)c(=O)[nH]1 (centres unmarked) [c-di-GMP]
c-di-GMP binding affinity, pH dependence ([1]; ITC, pH 4.0 versus pH 8.5): similar
-TΔS ([1]; Na-Acetate, pH 4.0): -4.81 kcal/mol
Kd ([1]; Na-Acetate, pH 4.0): 4 nM
ΔG ([1]; Na-Acetate, pH 4.0): -11.26 kcal/mol
ΔH ([1]; Na-Acetate, pH 4.0): -6.45 kcal/mol
-TΔS ([1]; Tris, pH 8.5): 0.63 kcal/mol
Kd ([1]; Tris, pH 8.5): 9 nM
ΔG ([1]; Tris, pH 8.5): -10.78 kcal/mol
ΔH ([1]; Tris, pH 8.5): -11.41 kcal/mol
-TΔS ([2]; Bis-Tris, pH 6.0): -2.23 ± 0.80 kcal/mol
Kd ([2]; Bis-Tris, pH 6.0): 64 ± 7 nM
N ([2]; Bis-Tris, pH 6.0): 1.03 ± 0.23
ΔG ([2]; Bis-Tris, pH 6.0): -9.64 ± 0.06 kcal/mol
ΔH ([2]; Bis-Tris, pH 6.0): -7.42 ± 0.75 kcal/mol
-TΔS ([2]; Bis-Tris, pH 6.5): -1.48 ± 0.23 kcal/mol
Kd ([2]; Bis-Tris, pH 6.5): 110 ± 3 nM
N ([2]; Bis-Tris, pH 6.5): 1.00 ± 0.27
ΔG ([2]; Bis-Tris, pH 6.5): -9.33 ± 0.02 kcal/mol
ΔH ([2]; Bis-Tris, pH 6.5): -7.86 ± 0.22 kcal/mol
-TΔS ([2]; Bis-Tris, pH 7.0): -2.05 ± 0.07 kcal/mol
Kd ([2]; Bis-Tris, pH 7.0): 249 ± 7 nM
N ([2]; Bis-Tris, pH 7.0): 0.90 ± 0.16
ΔG ([2]; Bis-Tris, pH 7.0): -8.85 ± 0.02 kcal/mol
ΔH ([2]; Bis-Tris, pH 7.0): -6.80 ± 0.08 kcal/mol
Kd ([2]; Na-Acetate, pH 4.0): 23 ± 10 nM
N ([2]; Na-Acetate, pH 4.0): 0.84 ± 0.07
-TΔS ([2]; Na-Acetate, pH 4.5): -2.56 ± 0.49 kcal/mol
Kd ([2]; Na-Acetate, pH 4.5): 61 ± 7 nM
N ([2]; Na-Acetate, pH 4.5): 0.90 ± 0.04
ΔG ([2]; Na-Acetate, pH 4.5): -9.68 ± 0.07 kcal/mol
ΔH ([2]; Na-Acetate, pH 4.5): -7.12 ± 0.44 kcal/mol
-TΔS ([2]; Na-Acetate, pH 5.0): -1.47 ± 0.47 kcal/mol
Kd ([2]; Na-Acetate, pH 5.0): 36 ± 8 nM
N ([2]; Na-Acetate, pH 5.0): 1.31 ± 0.09
ΔG ([2]; Na-Acetate, pH 5.0): -9.99 ± 0.13 kcal/mol
ΔH ([2]; Na-Acetate, pH 5.0): -8.53 ± 0.44 kcal/mol
-TΔS ([2]; Na-Acetate, pH 5.5): -0.40 ± 1.00 kcal/mol
Kd ([2]; Na-Acetate, pH 5.5): 28 ± 10 nM
N ([2]; Na-Acetate, pH 5.5): 0.97 ± 0.09
ΔG ([2]; Na-Acetate, pH 5.5): -10.17 ± 0.20 kcal/mol
ΔH ([2]; Na-Acetate, pH 5.5): -9.78 ± 0.92 kcal/mol
-TΔS ([2]; Tris, pH 7.5): -3.22 ± 0.17 kcal/mol
Kd ([2]; Tris, pH 7.5): 342 ± 26 nM
N ([2]; Tris, pH 7.5): 0.92 ± 0.07
ΔG ([2]; Tris, pH 7.5): -8.67 ± 0.04 kcal/mol
ΔH ([2]; Tris, pH 7.5): -5.45 ± 0.13 kcal/mol
-TΔS ([2]; Tris, pH 8.0): 0.99 ± 0.27 kcal/mol
Kd ([2]; Tris, pH 8.0): 432 ± 25 nM
N ([2]; Tris, pH 8.0): 1.12 ± 0.05
ΔG ([2]; Tris, pH 8.0): -8.53 ± 0.03 kcal/mol
ΔH ([2]; Tris, pH 8.0): -9.52 ± 0.31 kcal/mol
-TΔS ([2]; Tris, pH 8.5): 2.15 ± 0.18 kcal/mol
Kd ([2]; Tris, pH 8.5): 463 ± 13 nM
N ([2]; Tris, pH 8.5): 0.73 ± 0.14
ΔG ([2]; Tris, pH 8.5): -8.49 ± 0.02 kcal/mol
ΔH ([2]; Tris, pH 8.5): -10.65 ± 0.16 kcal/mol
Kd [3]: ~6 nM
c-di-GMP binding affinity relative to WT [4]: significantly reduced affinity
c-di-GMP binding affinity relative to WT [5]: significantly reduced affinity
